From ChEMBL document CHEMBL1201862, “PubChem BioAssay data set” (2004)
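48-hour exposure; five concentrations; linearly interpolated endpoints. GI50 = concentration required for 50% inhibition of growth.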 Activity calls are given as the source filed them. Cut-off read from the data, not from the text of the source: active = GI50 up to about 1.1 µM and inactive = higher.

Legend:
Assay in all cases: NCI anticancer screen, dose series, 48 h
786-0 = tested on: 786-0
A498 = tested on: A498
A549 = tested on: A549
ACHN = tested on: ACHN
CAKI-1 = tested on: CAKI-1
CCRF-CEM = tested on: CCRF-CEM
COLO 205 = tested on: COLO 205
DMS-114 = tested on: DMS-114
DMS-273 = tested on: DMS-273
EKVX = tested on: EKVX
HCT-116 = tested on: HCT-116
HCT-15 = tested on: HCT-15
HL-60 = tested on: HL-60
HOP-62 = tested on: HOP-62
HT-29 = tested on: HT-29
K562 = tested on: K562
KM-20L2 = tested on: KM-20L2
KM12 = tested on: KM12
LOX IMVI = tested on: LOX IMVI
LXFL 529 = tested on: LXFL 529
M14 = tested on: M14
M19-MEL = tested on: M19-MEL
MOLT-4 = tested on: MOLT-4
Malme-3M = tested on: Malme-3M
NCI-H226 = tested on: NCI-H226
NCI-H460 = tested on: NCI-H460
NCI-H522 = tested on: NCI-H522
OVCAR-3 = tested on: OVCAR-3
OVCAR-4 = tested on: OVCAR-4
OVCAR-5 = tested on: OVCAR-5
OVCAR-8 = tested on: OVCAR-8
RPMI-8226 = tested on: RPMI-8226
RXF 631 = tested on: RXF 631
SF-268 = tested on: SF-268
SF-295 = tested on: SF-295
SF-539 = tested on: SF-539
SK-MEL-2 = tested on: SK-MEL-2
SK-MEL-5 = tested on: SK-MEL-5
SK-OV-3 = tested on: SK-OV-3
SN12C = tested on: SN12C
SNB-19 = tested on: SNB-19
SNB-75 = tested on: SNB-75
SR = tested on: SR
SW-620 = tested on: SW-620
UACC-257 = tested on: UACC-257
UACC-62 = tested on: UACC-62
UO-31 = tested on: UO-31

Measured: GI50

CCC1C2C=CC(CC2)N1S(=O)(=O)c1ccc(C)cc1 (configuration not stated)
22.8 µM: HCT-15
active: NCI-H226 283 nM
inactive: 786-0 31.9 µM | A498 33.9 µM | A549 28.2 µM | ACHN 35.9 µM | CAKI-1 20.8 µM | CCRF-CEM 22.4 µM | COLO 205 21.7 µM | DMS-114 20.3 µM | DMS-273 18.2 µM | EKVX 27.8 µM | HCT-116 30.9 µM | HL-60 4.22 µM | HOP-62 27.6 µM | HT-29 24.4 µM | K562 18.1 µM | KM-20L2 17.3 µM | KM12 24.4 µM | LOX IMVI 15.8 µM | LXFL 529 17.3 µM | M14 31 µM | M19-MEL 31.4 µM | MOLT-4 32.6 µM | Malme-3M 21.4 µM | NCI-H460 23 µM | NCI-H522 20.8 µM | OVCAR-3 33.7 µM | OVCAR-4 31.8 µM | OVCAR-5 22.3 µM | OVCAR-8 > 10 µM | RPMI-8226 12.9 µM | RXF 631 27.4 µM | SF-268 20.8 µM | SF-295 29.2 µM | SF-539 20.7 µM | SK-MEL-2 14 µM | SK-MEL-5 18.4 µM | SK-OV-3 26.1 µM | SN12C 16.4 µM | SNB-19 24.4 µM | SNB-75 > 10 µM | SR 22.4 µM | SW-620 16.8 µM | UACC-257 20.9 µM | UACC-62 11.2 µM | UO-31 12.9 µM
